For experiment [1], the system named is PPC-1 cells. Put plainly: Anoikis of PPC-1 cells in suspension versus adherent conditions (annexin V/PI, DAPI, colony formation). In kind it is cell-based, human. The procedure: FIG. 12. Depletion of endogenous FLIP levels by siRNA sensitizes malignant cells to anoikis. (A) PPC-1 cells were seeded in adherent conditions overnight and then transfected with 25 nM anti-FLIP siRNA (siFLIP) or control luciferase siRNA (siCtrl). Thirty hours after transfection, cells were harvested, total protein isolated and analyzed by SDS-PAGE immunoblotting using anti-FLIP and anti-actin antibodies. (B) PPC-1 cells were transfected with increasing concentrations of siFLIP or siCtrl. After transfection, cells were treated with CH-11 Fas activating antibody (100 ng/ml). Thirty hours after incubation, cells were harvested and apoptosis measured by flow cytometry to detect cell surface annexin V expression and PI uptake. Data represents the mean±SEM percent of viable cells. (C) PPC-1 cells were transfected with increasing concentrations of siFLIP or siCtrl. After transfection, cells were subcultured under suspension conditions for 30 hours and then harvested. Apoptosis was measured by flow cytometry to detect cell surface annexin V expression and PI uptake. Data represents the mean±SEM of percent of viable cells. (D) Equal volumes of PPC-1 cells from panel C were replated under adherent conditions to permit clonogenic growth. One week after replating, cells were stained with methylene blue and the number of colonies counted. Data represents the mean±SEM percent of colonies compared to untreated controls.
FIG. 13. Small molecule down-regulation of FLIP sensitizes prostate cancer cells to anoikis. (A) PPC-1 cells were seeded overnight in adherent conditions and then treated with increasing concentrations of 5809354 for 16 hours. After incubation, cells were harvested. Total cellular RNA was extracted and mRNA levels of the long isoform of FLIP (FLIPL), the short isoform of FLIP (FLIPS), or rRNA levels of 18S were detected by real-time RT-PCR. Data were normalized using the ΔΔCT method and expressed as the mean±SEM percent of […] expression relative to untreated controls. (B) PPC-1 cells were cultured and treated as in panel A. Total cellular protein was isolated and analyzed by SDS-PAGE immunoblotting using anti-FLIP and anti-Actin antibodies. (C) PPC-1 cells were seeded overnight in adherent conditions and then exposed to increasing concentrations of 5809354 in the presence or absence of Fas-activating antibody (CH-11, 100 ng/mL). Thirty hours after incubation, cell viability was determined using the MTS assay. Data represents the mean±SEM of percent of viable cells. (D) PPC-1 cells were seeded overnight in adherent or suspension conditions and then treated with increasing concentrations of 5809354 for 30 hours. After incubation, apoptosis was measured by flow cytometry to detect cell surface annexin V expression and PI. Data represents the mean±SEM of percent of viable cells. (E) Cells were harvested, fixed, stained with DAPI, and nuclear morphology analyzed by fluorescence microscopy. Arrowheads refer to fragmented nuclei indicative of apoptosis. […] Thirty hours after incubation, cells were harvested and equal volumes plated in a colony formation assay. One week later, cells were stained with methylene blue and the number of colonies counted. Data represents the mean ±SEM percent of colonies relative to untreated controls.
FIG. 15. 5809354 sensitizes cells to anoikis through a caspase 8 dependent mechanism. (A) PPC-1 cells (5×10^4) were cultured under suspension conditions overnight and then treated with 5809354 in the presence or absence of the pan-caspase inhibitor z-VAD-fink (100 μM). Thirty hours after incubation, anoikis was determined by flow cytometry to detect cell surface annexin V expression and PI uptake. Data represents the mean±SEM percent of viable cells or colonies compared to untreated controls. (B) PPC-1 cells (5×10^4) were cultured in suspension conditions overnight and then treated with 5809354 (60 μM). […]

Experiment [2] relates to PPC-1 cells. Nature of the experiment: Nuclear fragmentation of suspension PPC-1 cells overexpressing FLIP, CrmA or BclXL. In kind it is cell-based, human. The settings on record: 5809354 60 μM or staurosporine 0.5 μM, thirty hours. The procedure: FIG. 15. 5809354 sensitizes cells to anoikis through a caspase 8 dependent mechanism. (A) PPC-1 cells (5×10^4) were cultured under suspension conditions overnight and then treated with 5809354 in the presence or absence of the pan-caspase inhibitor z-VAD-fink (100 μM). Thirty hours after incubation, anoikis was determined by flow cytometry to detect cell surface annexin V expression and PI uptake. Data represents the mean±SEM percent of viable cells or colonies compared to untreated controls. (B) PPC-1 cells (5×10^4) were cultured in suspension conditions overnight and then treated with 5809354 (60 μM). At increasing times after treatment, caspase activation was detected with FITC-labeled peptides that bind preferentially and irreversibly to caspase 3/7, 8, or 9. Caspase activation was monitored by flow cytometry to quantify the percentage of fluorescently labeled cells. […] At increasing times after incubation, total cellular protein was isolated and analyzed by SDS-PAGE immunoblotting using anti-caspase 8 and anti-actin antibodies. * indicates cleaved caspase 8. […] Thirty hours after incubation, apoptosis was measured by cell surface annexin V expression and PI uptake. […] Ten hours after incubation, cell viability was measured using the MTS assay. […] EGFP expression and nuclear morphology were analyzed by fluorescence microscopy. […]

On to `CN[C@@H]1C[C@H]2O[C@@](C)([C@@H]1OC)n1c3ccccc3c3c4c(c5c6ccccc6n2c5c31)C(=O)NC4` [staurosporine, reference compound], for which the “apoptosis in suspension versus adherent cells” value in the experiment with PPC-1 cells [1] (thirty hours) is “did not discriminate between suspension and adherent cells”. Besides, the “effect of overexpressed FLIP, CrmA or BclXL on anoikis” value in the experiment with PPC-1 cells [2] is given as “overexpression of BclXL, but not CrmA, protected”.

Take “4-(4-chloro-2-methylphenoxy)-N-hydroxybutanamide [compound 5809354]”: the sensitization to anoikis result in the experiment on PPC-1 cells [1] (suspension conditions, 30 hours) was “sensitized cells to anoikis”. The “effect of z-VAD-fmk on anoikis” value in the experiment on PPC-1 cells [1] (suspension conditions, z-VAD-fmk 100 μM) is “z-VAD-fmk inhibited the ability of 5809354 to promote anoikis”. Besides, in the experiment on PPC-1 cells [1] (up to five days after treatment), the “apoptosis under adherent conditions” value was “did not induce apoptosis”. For the same molecule, the “effect of overexpressed FLIP, CrmA or BclXL on anoikis” value with PPC-1 cells [2] is given as “attenuated 5809354-mediated anoikis”.

(Values after patent US8008354B2, “Death receptor sensitizing compounds and methods of use therefor” (Burnham Institute for Medical Research, priority 2006, dated 2011).)
